From paper PMC7766159, “Novel Psychoactive Phenethylamines: Impact on Genetic Material” (International Journal of Molecular Sciences, 2020)

Key:
[1] = tested on: TK6 cells; assay: Cytotoxicity analysis (Guava ViaCount, cell viability); assay type: cell-based, human; settings: all concentrations tested (6.25-75 µM), 26 h
Experimental: In the preliminary phase of the research, we determined the concentrations to be used in the subsequent experiments aimed at evaluating the potential genotoxicity of different molecules under study. First, we assessed the 2C-H, 2C-I, 2C-B, 25B-NBOMe, and MDMA-induced cytotoxicity after 26 h treatment (time required by TK6 cells to carry out two cell cycles) by measuring the percentage of live cells at the different concentrations tested (6.25, 12.5, 25, 35, 50, 75 µM). This value was normalized on the one obtained in the untreated control cultures C (-) equal to 100% in order to check whether the cellular viability complied with the OECD threshold (equal to 55 ± 5%).
(§1) In all experiments, aliquots of 2 × 10^5 of TK6 cells were treated with increasing concentrations of phenethylamines from 0 to 75 µM and incubated for 26 h, corresponding to two replication cycles for the analysis of cytotoxicity, cytostasis, apoptosis, and genotoxicity, while for the analysis of ROS, 1 h of treatment was performed.
Cytotoxicity assay was performed as previously described by Lenzi et al.. Briefly, at the end of the phenethylamines treatment time, 1.5 × 10^5 cells were stained with Guava ViaCount Reagent. The reagent contains the Propidium Iodide (PI) that allows us to discriminate viable from dead cells based on different permeability to DNA-binding dye.
180 μL of reagent were added to 20 μL of cell suspension and incubated for 5 min at room temperature (RT). After, a total of 1000 events were acquired and analyzed by Guava ViaCount software.
The results obtained from the samples treated with different concentrations of phenethylamines were normalized on those obtained from the untreated control cultures, accounted equal to 100%.

[2] = tested on: TK6 cells; assay: Cytostasis analysis (Relative Population Doubling, Guava ViaCount); assay type: cell-based, human; settings: for Relative Population Doubling (RPD): 26 h treatment, vs untreated control C (-) = 100%, mean ± SEM
From the text: In addition, to make the genotoxicity test reliable, it is necessary to check the cellular proliferation in order to verify that a sufficient number of cells has undergone mitosis and so transmitted the genetic damage suffered to the daughter cells. For this purpose, the OECD recommends the measurement of the Relative Population Doubling (RPD) to estimate the cytostasis and, analogously to the cytotoxicity, establishes a threshold at most equal to 55 ± 5% [45].
as §1
In parallel, always using the Guava ViaCount Reagent, the number of cells seeded at time 0 and that measured at the end of the phenethylamines treatment time was used to check the correct replication in the control cultures and to compare it to that measured in the treated cultures by the RPD, calculated as the following formula [46, 47]: RPD= (No. of Population doublings in treated cultures)/(No. of Population doublings in control cultures) × 100
Similarly to cytotoxicity, the cytostasis was checked in order to verify that cell proliferation respected the threshold established by the OECD guideline (55 ± 5%).

[3] = tested on: TK6 cells; assay: Apoptosis analysis (Guava Nexin Assay); assay type: cell-based, human; settings: 26 h, vs untreated control C (-) equal to 1, tested concentrations
Experimental: as §1
The percentage of apoptotic cells was evaluated by the Guava Nexin Assay according to the procedure by Lenzi et al..
Briefly, at the end of the phenethylamines treatment time, the percentage of apoptotic cells was assessed using the Guava Nexin Reagent. The reagent contains the 7-aminoactinomycin D (7-AAD), a cell non-permeant dye, that allows discrimination between live and dead cells and the Annexin-V-PE that allows the identification of apoptotic cells by binding the phosphatidylserine on the cell surface.
100 μL of reagent were added to 100 μL of cell suspension (~1 × 10^5 cells) and incubated for 20 min at RT. After, a total of 2000 events were acquired and analyzed by Guava Nexin software.
The apoptotic cell percentages recorded in the cultures treated with phenethylamines different concentrations were normalized on those recorded in the untreated control cultures, accounted equal to 1 and expressed as apoptotic fold increase.

[4] = tested on: TK6 cells; assay: Genotoxicity analysis (micronucleus frequency, automated flow cytometric protocol); assay type: cell-based, human; settings: 26 h
Experimental: as §1
The analysis of the MNi frequency was performed using a new automated flow cytometric protocol that we recently developed in our laboratory. The detailed protocol is described in the paper by Lenzi et al. and was used in our previous publication to analyze the genotoxicity of some synthetic cannabinoids.
Briefly, at the end of the phenethylamines treatment time, 7 × 10^5 cells were collected and incubated with 7-AAD at RT for 5 min, after which the cells were lysed and stained with SYTOX Green for 1 h. After, a total of 10,000 nuclei, derived from viable and proliferating cells (7-AAD negative), and the corresponding number of micronuclei were acquired. The discrimination between nuclei and MNi occurs on the basis of the different size analyzed by Forward Scatter (FSC), and the different intensity of green fluorescence (SYTOX Green).
The MNi frequencies (number of MNi/10,000 nuclei) recorded in treated cultures were normalized on those recorded in the untreated control cultures, accounted equal to 1 and expressed as MNi frequency fold increase.
As recommended by OECD guideline 487, we used MMC and VINB as positive controls, being known clastogen and aneuploidogen agents, respectively.

[5] = tested on: TK6 cells; assay: ROS analysis (DCFH2-DA fluorescence); assay type: cell-based, human; settings: 1 h; 35 µM for 2C-H, 2C-I and MDMA, 12.5 µM for 2C-B and 25B-NBOMe; vs C (-) equal to 1
Experimental: Lastly, in order to identify a possible mechanism of action at the basis of the genotoxic activity, TK6 cells were treated for 1 h with the highest concentration tested for each substance: 35 µM for 2C-H, 2C-I and MDMA, and 12.5 µM for 2C-B and 25B-NBOMe, and then the possible ROS induction was measured.
as §1
At the end of the phenethylamines treatment time, 2 × 10^5 cells were centrifuged, resuspended in PBS1X to measure intracellular ROS level and stained at 37 °C in the dark for 20 min with 2′,7′-dichlorodihydrofluorescin diacetate (DCFH2-DA). After, a total of 5000 events, derived from viable cells, were acquired and analyzed using Guava Incyte software.
The fluorescence intensity of 2′,7′-dichlorofluorescin (DCF) (which forms in cells in the presence of ROS) recorded in treated cultures was normalized on those recorded in the untreated control cultures, accounted equal to 1 and expressed as a ROS fold increase.

[6] = tested on: undifferentiated and differentiated human SH-SY5Y cells; parameters: method as in PMID 28067045; settings: cited from earlier work
[7] = tested on: primary rat hepatocytes; parameters: method as in PMID 27255387; settings: 24 h; cited from earlier work
[8] = tested on: C2C12 myoblast cells; parameters: method as in PMID 30925718; settings: concentrations 30 times higher than in this study, 24 h; cited from earlier work
[9] = tested on: primary rat hepatocyte; parameters: method as in PMID 31468101; settings: after 24 h; cited from earlier work

## CNC(C)Cc1ccc2c(c1)OCO2 (stereo not shown) [MDMA, 3,4-methylenedioxy-methamphetamine, reference compound]
[1]
  cytotoxic and cytostatic effect: did not show a cytotoxic and cytostatic effect
[2]; 6.25 µM
  Relative Population Doubling (RPD): 96.0% ± 1.0
[2]; 12.5 µM
  Relative Population Doubling (RPD): 96.0% ± 0.8
[2]; 25 µM
  Relative Population Doubling (RPD): 98.7% ± 0.9
[2]; 35 µM
  Relative Population Doubling (RPD): 98.0% ± 1.5
[2]; 50 µM
  Relative Population Doubling (RPD): 96.0% ± 1.2
[2]; 75 µM
  Relative Population Doubling (RPD): 91.9% ± 1.3
[2]; 26 h, tested 6.25-75 µM
  concentrations that caused an RPD value well above 55 ± 5% (OECD threshold): all the concentrations tested
[3]
  apoptosis fold increase: never reached a doubling
[4]; 25 and 35 µM, vs C (-)
  MNi frequency fold increase: did not increase the MNi frequency in any case
[4]; without metabolic activation
  genotoxicity (MN test outcome): not genotoxic
[5]
  ROS fold increase (mean fluorescence intensity): did not highlight any ROS level increase
[6]
  production of ROS: unable to trigger the production of ROS
[7]
  ROS levels: increase of ROS levels
[8]
  mitochondrial superoxide production: increase in the mitochondrial superoxide production

## CNC(C)C(=O)c1cccc(C)c1 (stereo not shown) [Metaphedrone, 3-methylmethcathinone]
[9]
  concentration mediating oxidative stress: 10 µM
